From publication PMC4414571, “Peptides of Presenilin-1 Bind the Amyloid Precursor Protein Ectodomain and Offer a Novel and Specific Therapeutic Approach to Reduce ß-Amyloid in Alzheimer’s Disease” (PLoS ONE, 2015)
“Also recorded” adds a separate entry of the source. Like-named read-outs stand apart in the source and are kept apart here. Ends that are not written are not given here.

Key:
[1] = tested on: Aβ production in cell cultures; conditions: cells cultured in media containing excess of the FLAG-coupled NH2-terminal domain of PS-1 (residues 1–80), ref [13], cited from earlier work
From the text: In that work we had selected the NH2-t ... || Peptide P1, comprising the first 80 amino acids of PS-1, scrambled P1 and the two large oligopeptides corresponding to the two halves of the human P1 (peptides P2 and P3, Table 1), were first synthesized and tested in vitro for their effect on the production of Aβ40 and 42.

[2] = molecular target: T1, soluble ectodomain of APP (APPs, APP 695) (Homo sapiens, UniProt P05067); assay: Biolayer interferometry, biotinylated peptides on streptavidin biosensors vs purified soluble APP (APPs); assay type: binding; conditions: 30°C, biotinylated peptide on SA biosensors; for koff / kon / Kd: 1:1 model; for Kd: k off/k on, Kinetics Buffer (1X PBS, 0.002% Tween-20, 0.01% BSA)
T1 construct: host or cells: Sf9 insect cells (baculovirus), conditioned medium
Experimental: Sf9 cells (ATCC CRL 1711) were grown in TMN-FH complete medium (Pharmingen) in suspension and infected at a multiplicity of infection of 2 with a titred stock of recombinant virus expressing human APP695. Conditioned media and/or cells were harvested 6 days after infection. Cells and debris were removed by centrifugation (at 1000 x g for 15 min).
Recombinant baculoviruses were produced according to published protocols. A fragment containing full-length APP 695 was subcloned into the baculovirus transfer vector pBlueBac3 (Invitrogen). The resulting recombinant vector was co-transfected with baculovirus DNA into sf9 cells. Recombinant APP expression was verified by Western blot hybridization using mouse MAb against human APP (Cat # MAB348, Millipore).
APPs was purified from baculovirus conditioned medium to >95% purity, as assessed by densitometry analysis of Coomassie stained SDS PAGE gels, by Arvys Proteins, Stamford, CT, using the following strategy. The conditioned medium proteins were purified by heparin-affinity chromatography, followed by two gel filtration chromatography steps over HiPrep Sephacryl S300 columns and two steps of anion exchange chromatography on HiTrapQ columns.
The binding affinities of peptides P1, scrambled P1, P4, P5, P7 and P8 for the soluble ectodomain of APP or control IgG were measured by biolayer interferometry on an Octet RED96 System (Pall FortéBio Corp., Menlo Park, CA). This system monitors interference of light reflected from two sources (an internal reflection surface and the liquid/solid interface of a fiber optic sensor) to measure the rate of binding of molecules to the biosensor surface.
Peptides were synthesized and biotinylated at the NH2-terminus by Dr. Michael Freydkin at Biopeptides, Inc., San Diego, CA, and purified to >95% by HPLC. Biotinylated peptides were loaded onto Streptavidin (SA) biosensors (Pall FortéBio Corp.) at empirically determined concentrations. All affinity measurements were carried out in Kinetics Buffer (KB) (1X PBS, 0.002% Tween-20, and 0.01% BSA) at 30°C. Typically, the biosensors were pre-equilibrated in KB for 120s, loaded with a biotinylated peptide at optimal concentrations and times, quenched with 10 μg/ml biocytin in KB for 180s, brought to baseline in KB for 120s and transferred to wells containing purified APPs (0–200 nM). Multiple negative controls were run for each peptide including association buffer only (no APP) or with IgG replacing APP. Binding kinetics were calculated using the FortéBio Data Analysis v7.1 software. The association (k on) and dissociation (k off) rate constants were obtained by fitting the association and dissociation data to a 1:1 model. Binding affinity, KD, was calculated as k off/k on.

[3] = tested on: IMR-32 human neuroblastoma cell-line (endogenous Aβ40 or 42 production); assay: Endogenous Aβ40 and 42 production in IMR-32 culture medium by ELISA; assay type: cell-based; conditions: for Effect on Aβ40 and 42 production in vitro (in words): 0–5 μM peptide, 24 h, IMR-32 culture medium, ELISA; for Production of total Aβ and of Aβ 40 and 42 (summary in words): Discussion summary, stated as in vitro and in vivo (mThy1-hAPP Tg mice)
Experimental: A human neuroblastoma cell-line, IMR-32 (ATCC CCL-127) was cultured in MEM Earles medium containing 10% fetal bovine serum, 2 mM L-glutamine in the presence of penicillin and streptomycin. Equal numbers of cells (0.3 x 10^6 per well) were plated on 6-well plates overnight. Peptides (0–5 μM) were added to fresh culture medium (500 μl per well) and left in the incubator for 24 hours, after which the culture medium from each well was removed and stored at -80°C in the presence of 4-(2-Aminoethyl) benzenesulfonyl fluoride hydrochloride (AEBSF) and protease inhibitors. Prior to use, the culture medium was centrifuged in an eppendorf microfuge for 5 min at 4°C, the supernatant diluted with an equal volume of sample diluent buffer (Wako) and analyzed for the presence of Aβ40 or 42 using a commercial ELISA kit (Wako).

[4] = tested on: Aβ deposits in mThy1-hAPP transgenic mice; assay: Plaque load / Aβ immunolabeling in brain sections of mThy1-hAPP Tg mice after intraventricular peptide infusion; assay type: in vivo, mouse; conditions: 10 μM in PBS, two weeks infusion then two weeks rest, vs PBS controls
Experimental: These mice express mutated (London V717I and Swedish K670M/N671L) hAPP751 under the control of the neuronal murine (m)Thy-1 promoter. […] The Tg lines were maintained by crossing heterozygous Tg mice with non-Tg wild type C57BL/6 x DBA/2 F1 breeders. All animal studies were carried out according to protocols approved by the Institutional Animal Care and Use Committee of the University of California San Diego. […]
For analysis of Aβ deposits, blind-coded 40 μm vibratome sections were immunolabeled as previously described with mouse monoclonal antibodies (MAb) against human Aβ (clone 82E1, prepared against Aβ 1–16) followed by incubation with fluorescein isothiocyanate (FITC)-conjugated anti-mouse IgG (Vector Laboratories). Sections were imaged with a laser scanning confocal microscope (MRC1024, BioRad) as described and digital images were analyzed with the NIH Image 1.43 program to determine the percent area occupied by Aβ deposits. Three immunolabeled sections were analyzed per mouse and the average of individual measurements was used to calculate group means. […]

[5] = tested on: Aβ 1–40 and 1–42 in mThy1-hAPP mouse brains; assay: Aβ40- and Aβ42-specific ELISA of neocortex extracts of peptide-treated mThy1-hAPP mice; assay type: in vivo; conditions: vs PBS, 10 μM peptide infusion, two weeks then two weeks rest
Experimental: These mice express mutated (London V717I and Swedish K670M/N671L) hAPP751 under the control of the neuronal murine (m)Thy-1 promoter. […] The Tg lines were maintained by crossing heterozygous Tg mice with non-Tg wild type C57BL/6 x DBA/2 F1 breeders. All animal studies were carried out according to protocols approved by the Institutional Animal Care and Use Committee of the University of California San Diego.
Age-matched male and female mThy1-hAPP Tg mice at 6 months of age were anesthetized and under sterile conditions, a 26 gauge stainless steel cannula (Alzet Brain Infusion kit 3, Durect Corp) was stereotaxically implanted into the right ventricle using the following coordinates: –1 mm using Bregma as a reference, lateral, 1.0 mm, depth, -3.0 mm, and secured to the cranium using superglue. The cannula was connected via a 5 mm coil of V3 Biolab vinyl tubing to a model 1002 osmotic minipump (Alzet, Durect Corp) surgically placed subcutaneously beneath the shoulder blades and surgically closed. The solutions (each peptide at 10 μM in PBS) were delivered directly into lateral ventricles at a flow rate of 0.25 μl per hour (100 μl total volume) for two weeks. […]
Samples from mouse cortex and hippocampus were homogenized in ice-cold, 6 M guanidine-HCl according to published protocols. Quantification of Aβ 1–40 and 1–42 was carried out by ELISA kits (Invitrogen). […]

[6] = tested on: NICD (γ-secretase activity); assay: NICD levels in neocortex of treated mThy1-hAPP mice by Western blot (γ-secretase activity); assay type: in vivo, mouse; conditions: peptide-infused mThy1-hAPP mice vs PBS, n = 5, two weeks after end of treatment
Experimental: Extracts of neocortex of mThy1-hAPP mice treated with P4, P8 or PBS only were electrophoresed on SDS gels and Western blotted with primary rabbit antibodies against NICD (Cat# 07–1232, Millipore) at 4°C overnight, followed by horse-radish peroxidase (HRP)-conjugated goat anti-rabbit IgG (Bio-Rad). The immunoreactive bands were detected by chemiluminescence (Thermo Scientific).
An optimal therapeutic approach to AD would avoid producing serious effects on other biochemically and physiologically important processes, as would occur if the cleavages of any of the other substrates of β- or γ-secretase were affected in the process of reducing the levels of Aβ. An especially well-studied example is the γ-secretase activity of PS-1 that is critically involved in the final enzymatic cleavage of Aβ from APP; it also functions in an essential developmental process that generates NICD from Notch. […] At the same time we analyzed the same tissue samples for their β-secretase (BACE-1) activity and APP expression. Extracts were prepared of the neocortex of Tg mice that had been treated with P4, P8 or PBS, and the levels of NICD were determined by Western blot analysis with a primary rabbit Ab against NICD. […]

[7] = tested on: NICD / γ-secretase in Jurkat cells; assay: NICD levels in extracts of Jurkat cells by ELISA (γ-secretase activity); conditions: 24 h, percent control
Experimental: Jurkat cells (Sigma) were cultured in RPMI 1640 medium supplemented with 10% FCS, 2 mM L-glutamine, penicillin and streptomycin at 37°C in the presence of 5% CO2. […] After harvesting the cells, extracts were prepared by sonication in lysis buffer (Cell Signaling Technologies) supplemented with 1mM PMSF and complete protease inhibitor cocktail (Roche). The solubilized extracts were then used in ELISA assays to determine NICD levels, as a measure of γ-secretase activity, using the PathScan Cleaved Notch 1 (Val 1744) sandwich ELISA kit (Cell Signaling Technologies) according to the manufactuer’s protocols.

T1 sequence (P05067 18-612 isoform P05067-4 limits assumed): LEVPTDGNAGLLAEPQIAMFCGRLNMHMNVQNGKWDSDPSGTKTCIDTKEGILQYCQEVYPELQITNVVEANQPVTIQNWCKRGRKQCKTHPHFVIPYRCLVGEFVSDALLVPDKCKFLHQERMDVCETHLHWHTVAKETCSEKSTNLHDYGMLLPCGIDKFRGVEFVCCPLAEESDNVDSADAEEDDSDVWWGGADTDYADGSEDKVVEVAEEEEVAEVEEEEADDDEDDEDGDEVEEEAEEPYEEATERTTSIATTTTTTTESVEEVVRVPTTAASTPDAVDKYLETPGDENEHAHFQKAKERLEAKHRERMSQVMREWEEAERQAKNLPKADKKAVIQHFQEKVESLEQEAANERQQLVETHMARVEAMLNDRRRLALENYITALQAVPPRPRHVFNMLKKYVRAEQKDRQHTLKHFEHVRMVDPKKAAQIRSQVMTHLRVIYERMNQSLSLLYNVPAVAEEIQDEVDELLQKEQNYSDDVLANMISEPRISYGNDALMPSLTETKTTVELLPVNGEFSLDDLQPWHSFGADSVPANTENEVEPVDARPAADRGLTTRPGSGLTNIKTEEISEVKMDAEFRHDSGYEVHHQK

## FLAG-PS-1 (residues1-80): bacterially produced FLAG-PS-1 (residues1-80)
[1]
  Aβ production (in words): robust inhibition of Aβ
[1]; listed as NH2-terminal domain of PS-1 (residues 1–80) coupled to the FLAG protein
  Aβ production (in words): markedly inhibited

## DEEEDEELTLKYGAK [Peptide P7]
[2]; Kinetics Buffer
  koff: 0.00105 s⁻¹
  kon: 104000 M⁻¹ s⁻¹
[2]
  Kd: 10.1 nM

## RRSLGH [Peptide P9, residues 41–46 of PS-1, fragment of P4]
[3]
  Effect on Aβ40 and 42 production in vitro (in words): did not give a significant reduction in Aβ in vitro; also recorded: had not shown a reduction of Aβ in vitro
[4]
  Aβ immunolabeling / Aβ load in mouse brain (in words): less effective but still produced statistically significant reductions in Aβ levels compared to PBS controls in the neocortex
[5]
  Aβ40/42 in neocortex extracts by ELISA (in words): gave reductions in Aβ load, but to a lesser extent

## RQVVEQDEEEDEELT [Peptide P6, residues 60–74 of PS-1]
[3]
  Effect on Aβ40 and 42 production in vitro (in words): substantial dose-dependent reduction in Aβ40 and 42
  Production of total Aβ and of Aβ 40 and 42 (summary in words): markedly reducing the production of total Aβ and of Aβ 40 and 42 in vitro and in vivo

## PEPLSNGRP [Peptide P10, residues 47–55 of PS-1, fragment of P4]
[3]
  Effect on Aβ40 and 42 production in vitro (in words): did not give a significant reduction in Aβ in vitro; also recorded: had not shown a reduction of Aβ in vitro
[4]
  Aβ immunolabeling / Aβ load in mouse brain (in words): less effective but still produced statistically significant reductions in Aβ levels compared to PBS controls in the neocortex
[5]
  Aβ40/42 in neocortex extracts by ELISA (in words): gave reductions in Aβ load, but to a lesser extent

## SNGRPQGNSRQVVEQ [Peptide P5, residues 51–65 of PS-1]
[3]
  Effect on Aβ40 and 42 production in vitro (in words): no significant effect on Aβ production
  Production of total Aβ and of Aβ 40 and 42 (summary in words): did not reduce Aβ
[2]; Kinetics Buffer
  Binding to purified APPs (in words): no significant binding to APP

## RRSLGHPEPLSNGRP [Peptide P4]
[2]; Kinetics Buffer
  koff: 0.00134 s⁻¹
  kon: 83600 M⁻¹ s⁻¹
[2]
  Kd: 16.1 nM
[6]
  NICD levels in neocortex (in words): not accompanied by any significant changes in the levels of NICD
[7]; 0–10 μM, 450 nm, n = 2–3
  NICD levels in Jurkat cells, peptides (in words): no appreciable change in the levels of NICD

## CC(C)[C@H](O)C(=O)N[C@@H](C)C(=O)N[C@@H]1C(=O)N(C)CCc2ccccc21 [Semagacestat, reference compound]
[7]; 0–100 nM, n = 2
  NICD levels in Jurkat cells, γ-secretase inhibitor (in words): inhibited in a dose-dependent manner
